Test results taken from ChEMBL document CHEMBL6083215, “Structure elucidation, absolute configuration, and biological evaluation of cyclic peroxides from the sponge Plakinastrella sp” (2024).

Experiments:
Format in all cases: functional
NCI-H322M = assay: Growth inhibition of human NCI-H322M cells
HCC 2998 = assay: Growth inhibition of human HCC 2998 cells
SNB-19 = assay: Growth inhibition of human SNB-19 cells
HOP-92 = assay: Growth inhibition of human HOP-92 cells
SR = assay: Growth inhibition of human SR cells
UO-31 = assay: Growth inhibition of human UO-31 cells
A498 = assay: Growth inhibition of human A498 cells
MCF7 = assay: Growth inhibition of human MCF7 cells
MOLT-4 = assay: Growth inhibition of human MOLT-4 cells
NCI/ADR-RES = assay: Growth inhibition of human NCI-ADR-RES cells
BT-549 = assay: Growth inhibition of human BT-549 cells
LOX IMVI = assay: Growth inhibition of human LOX IMVI cells
RPMI-8226 = assay: Growth inhibition of human RPMI-8226 cells
NCI-H522 = assay: Growth inhibition of human NCI-H522 cells
HT-29 = assay: Growth inhibition of human HT-29 cells
Malme-3M = assay: Growth inhibition of human Malme-3M cells
HL-60(TB) = assay: Growth inhibition of human HL-60(TB) cells
SK-OV-3 = assay: Growth inhibition of human SK-OV-3 cells
ACHN = assay: Growth inhibition of human ACHN cells
Hs-578T = assay: Growth inhibition of human HS 578T cells
HCT-116 = assay: Growth inhibition of human HCT-116 cells
MDA-MB-231 = assay: Growth inhibition of human MDA-MB-231 cells
EKVX = assay: Growth inhibition of human EKVX cells
DU-145 = assay: Growth inhibition of human DU-145 cells
SF-539 = assay: Growth inhibition of human SF-539 cells
OVCAR-4 = assay: Growth inhibition of human OVCAR-4 cells
HCT-15 = assay: Growth inhibition of human HCT-15 cells
MDA-MB-468 = assay: Growth inhibition of human MDA-MB-468 cells
786-0 = assay: Growth inhibition of human 786-0 cells
SN12C = assay: Growth inhibition of human SN12C cells
SK-MEL-5 = assay: Growth inhibition of human SK-MEL-5 cells
SF-268 = assay: Growth inhibition of human SF-268 cells
NCI-H23 = assay: Growth inhibition of human NCI-H23 cells
HOP-62 = assay: Growth inhibition of human HOP-62 cells
OVCAR-5 = assay: Growth inhibition of human OVCAR-5 cells
SK-MEL-28 = assay: Growth inhibition of human SK-MEL-28 cells
T47D = assay: Growth inhibition of human T47D cells
K562 = assay: Growth inhibition of human K562 cells
NCI-H226 = assay: Growth inhibition of human NCI-H226 cells
RXF 393 = assay: Growth inhibition of human RXF 393 cells
TK-10 = assay: Growth inhibition of human TK-10 cells
OVCAR-8 = assay: Growth inhibition of human OVCAR-8 cells
SF-295 = assay: Growth inhibition of human SF-295 cells
UACC-62 = assay: Growth inhibition of human UACC-62 cells
M14 = assay: Growth inhibition of human M14 cells
KM12 = assay: Growth inhibition of human KM12 cells
PC-3 = assay: Growth inhibition of human PC-3 cells
IGROV-1 = assay: Growth inhibition of human IGROV-1 cells
SNB-75 = assay: Growth inhibition of human SNB-75 cells
OVCAR-3 = assay: Growth inhibition of human OVCAR-3 cells
U-251 = assay: Growth inhibition of human U-251 cells
CCRF-CEM = assay: Growth inhibition of human CCRF-CEM cells
A549 = assay: Growth inhibition of human A549 cells
CAKI-1 = assay: Growth inhibition of human CAKI-1 cells
SK-MEL-2 = assay: Growth inhibition of human SK-MEL-2 cells
UACC-257 = assay: Growth inhibition of human UACC-257 cells
MDA-MB-435 = assay: Growth inhibition of human MDA-MB-435 cells
COLO 205 = assay: Growth inhibition of human COLO 205 cells
SW-620 = assay: Growth inhibition of human SW620 cells
NCI-H460 = assay: Growth inhibition of human NCI-H460 cells

CCCCCCCCC/C=C(/C)C[C@]1(C)C[C@H](C)[C@@H](CC(=O)O)OO1
GI50 (NCI-H322M): 980 nM | GI50 (HCC 2998): 980 nM | GI50 (SNB-19): 980 nM | GI50 (HOP-92): 980 nM | GI50 (SR): 980 nM | GI50 (UO-31): 190 nM | GI50 (A498): 980 nM | GI50 (MCF7): 980 nM | GI50 (MOLT-4): 980 nM | GI50 (NCI/ADR-RES): 980 nM | GI50 (BT-549): 980 nM | GI50 (LOX IMVI): 110 nM | GI50 (RPMI-8226): 980 nM | GI50 (NCI-H522): 980 nM | GI50 (HT-29): 980 nM | GI50 (Malme-3M): 980 nM | GI50 (HL-60(TB)): 220 nM | GI50 (SK-OV-3): 980 nM | GI50 (ACHN): 980 nM | GI50 (Hs-578T): 980 nM | GI50 (HCT-116): 980 nM | GI50 (MDA-MB-231): 980 nM | GI50 (EKVX): 980 nM | GI50 (DU-145): 980 nM | GI50 (SF-539): 980 nM | GI50 (OVCAR-4): 980 nM | GI50 (HCT-15): 980 nM | GI50 (MDA-MB-468): 980 nM | GI50 (786-0): 980 nM | GI50 (SN12C): 980 nM | GI50 (SK-MEL-5): 980 nM | GI50 (SF-268): 980 nM | GI50 (NCI-H23): 980 nM | GI50 (HOP-62): 980 nM | GI50 (OVCAR-5): 980 nM | GI50 (SK-MEL-28): 980 nM | GI50 (T47D): 980 nM | GI50 (K562): 980 nM | GI50 (NCI-H226): 980 nM | GI50 (RXF 393): 980 nM | GI50 (TK-10): 980 nM | GI50 (OVCAR-8): 980 nM | GI50 (SF-295): 980 nM | GI50 (UACC-62): 980 nM | GI50 (M14): 980 nM | GI50 (KM12): 980 nM | GI50 (PC-3): 980 nM | GI50 (IGROV-1): 980 nM | GI50 (SNB-75): 980 nM | GI50 (OVCAR-3): 980 nM | GI50 (U-251): 980 nM | GI50 (CCRF-CEM): 980 nM | GI50 (A549): 980 nM | GI50 (CAKI-1): 980 nM | GI50 (SK-MEL-2): 980 nM | GI50 (UACC-257): 980 nM | GI50 (MDA-MB-435): 980 nM | GI50 (COLO 205): 980 nM | GI50 (SW-620): 980 nM | GI50 (NCI-H460): 980 nM

COc1cccc2c1C(=O)c1c(O)c3c(c(O)c1C2=O)C[C@@](O)(C(=O)CO)C[C@@H]3O[C@H]1C[C@H](N)[C@H](O)[C@H](C)O1 [DOXORUBICIN]
GI50 (NCI-H322M): 120 nM | GI50 (HCC 2998): 120 nM | GI50 (SNB-19): 120 nM | GI50 (HOP-92): 120 nM | GI50 (SR): 120 nM | GI50 (A498): 120 nM | GI50 (MCF7): 120 nM | GI50 (MOLT-4): 120 nM | GI50 (NCI/ADR-RES): 120 nM | GI50 (BT-549): 120 nM | GI50 (RPMI-8226): 120 nM | GI50 (NCI-H522): 120 nM | GI50 (HT-29): 120 nM | GI50 (Malme-3M): 120 nM | GI50 (SK-OV-3): 120 nM | GI50 (ACHN): 120 nM | GI50 (Hs-578T): 120 nM | GI50 (HCT-116): 120 nM | GI50 (MDA-MB-231): 120 nM | GI50 (EKVX): 120 nM | GI50 (DU-145): 120 nM | GI50 (SF-539): 120 nM | GI50 (OVCAR-4): 120 nM | GI50 (HCT-15): 120 nM | GI50 (MDA-MB-468): 120 nM | GI50 (786-0): 120 nM | GI50 (SN12C): 120 nM | GI50 (SK-MEL-5): 120 nM | GI50 (SF-268): 120 nM | GI50 (NCI-H23): 120 nM | GI50 (HOP-62): 120 nM | GI50 (OVCAR-5): 120 nM | GI50 (SK-MEL-28): 120 nM | GI50 (T47D): 120 nM | GI50 (K562): 120 nM | GI50 (NCI-H226): 120 nM | GI50 (RXF 393): 120 nM | GI50 (TK-10): 120 nM | GI50 (OVCAR-8): 120 nM | GI50 (SF-295): 120 nM | GI50 (UACC-62): 120 nM | GI50 (M14): 120 nM | GI50 (KM12): 120 nM | GI50 (PC-3): 120 nM | GI50 (IGROV-1): 120 nM | GI50 (SNB-75): 120 nM | GI50 (OVCAR-3): 120 nM | GI50 (U-251): 120 nM | GI50 (CCRF-CEM): 120 nM | GI50 (A549): 120 nM | GI50 (CAKI-1): 120 nM | GI50 (SK-MEL-2): 120 nM | GI50 (UACC-257): 120 nM | GI50 (MDA-MB-435): 120 nM | GI50 (COLO 205): 120 nM | GI50 (SW-620): 120 nM | GI50 (NCI-H460): 120 nM
